US10640563B2, “Anti-B7-H3 antibodies and antibody drug conjugates” (AbbVie Inc., priority 2016, dated 2020)
Marks after values point to notes of the source that are not given here.

What was measured:
H1650 = assay: In vivo xenograft model H1650; set-up: species or system mouse; conditions: NCI-H1650, 7.5 mg/kg/day
H1299 = assay: In vivo xenograft model of non-small cell lung cancer H1299; conditions: NCI-H1299; 7.5 mg/kg/day, QDx1/IV
Method: (§1) The anti-tumor activity was assessed as monotherapy and in combination with docetaxel (H1650, H1299, H1975, and EBC1).

H1975 = assay: In vivo xenograft model of non-small cell lung cancer H1975; conditions: NCI-H1975; 7.5 mg/kg/day, QDx1/IV
Method: as §1

EBC1 = assay: In vivo xenograft model of non-small cell lung cancer EBC1; conditions: 7.5 mg/kg/day, QDx1/IV
Method: as §1

## CC(=O)O[C@@]12CO[C@@H]1C[C@H](O)[C@@]1(C)C(=O)[C@H](O)C3=C(C)[C@@H](OC(=O)[C@H](O)[C@@H](NC(=O)OC(C)(C)C)c4ccccc4)C[C@@](O)([C@@H](OC(=O)c4ccccc4)[C@H]21)C3(C)C [Docetaxel]
H1650; IV/Q14Dx3
  TGD (%): 158* %
  TGImax (%): 80* %
H1650; QDx1/IV
  TGD (%): 143%
  TGImax (%): 84%
H1299
  TGD (%): 48%
  TGImax (%): 87%
H1975
  TGD (%): 77%
  TGImax (%): 81%
EBC1
  TGD (%): 80%
  TGImax (%): 85%
